Assay [1] has as its system H460 (NRF2 pathway mutant cell line with high AKR1C3 expression). Kind of assay: In vitro cell proliferation assay (CellTiter-Glo), H460. The format is cell-based. The conditions noted are these: Homo sapiens, NCI-H460, 72 h; H460 cells, 3 days, CellTiter-Glo, top concentration 10 μM; read-out: H460 Qualified absolute AC50. From the text: (§1) Cellular Proliferation Assay to Assess Compounds Activity in H460 (NRF2 Pathway Mutant Cell Line with High AKR1C3 Expression) and Hara (NRF2 Pathway Wild Type Cell Line with Low AKR1C3 Expression).
(§2) The cell lines A549 and H460 are NRF2 pathway mutant and specifically contain genetic alterations in KEAP1 (A549: G333C, H460: D236H) (Singh A. et al., 2006 PLoS Medicine 3(10) e420). In these cell lines the NRF2 pathway is constitutively active and these cells express high levels of NRF2 protein and NRF2 pathway target gene AKR1C3. […] They have low AKR1C3 expression.
(§3) In Vitro Cell Proliferation Assay
(§4) Day 1, for H460 800 cells/well or 40 μL of 2×10^4 cells/mL and for Hara 2000 cells/well or 40 μL of 5×10^4 cells/mL medium (RPMI-1640 supplemented with 10% fetal bovine serum and 1% penicillin/streptomycin) were seeded into 384-well tissue culture plates. Day 2, compounds were serially diluted 1:5 to generate 8 point dose response curves and added to cells for a final top concentration of 10 μM. DMSO (1%) control and MG132 (30 μM) controls are added in columns 23 and 24 respectively on each plate for positive and negative control. After incubation for 3 days at 37° C./5% CO2, 30 μl of CellTiter-Glo reagent (Promega) was added and the plates were incubated for 10 min on plate shaker. The amount of luminescence was determined using a Perkin Elmer Envision plate reader. CellTiter-Glo luminescence values of cells treated with DMSO and MG132 controls were used to normalize the data and calculate percentage activity and AC50s of compounds using the Helios Software suite.
In general terms: Cellular ATP, detected with luciferase, serves as a proxy for viable cell number.

Assay [2] has as its system Hara (NRF2 pathway wild type cell line with low AKR1C3 expression). Kind of assay: In vitro cell proliferation assay (CellTiter-Glo), Hara. Format: cell-based. Particulars: 72 h; Hara cells, 3 days, CellTiter-Glo, top concentration 10 μM; read-out: HARA Qualified absolute AC50.
Excerpt: as §1, §2, §3, §4

Each structure is given as a SMILES string. Where only a bound is given, the exact number is not on record here.

Regarding `CCN1c2ccc(F)cc2C(=O)CC12CCN(C(=O)NCc1ccc(F)c(NCCO)c1)CC2` [Example 25, 1′-ethyl-6′-fluoro-N-(4-fluoro-3-((2-hydroxyethyl)amino)benzyl)-4′-oxo-3′,4′-dihydro-1′H-spiro[piperidine-4,2′-quinoline]-1-carboxamide], the half-maximal activity concentration (AC50) – broadly, the concentration giving half of the maximal activity seen – in assay [1] was 47 nM; in assay [2] it was 1660 nM.

Consider `CCN1c2ccc(F)cc2C(=O)CC12CCN(C(=O)NCc1ccc(F)c(N)c1F)CC2` [Example 26, N-(3-amino-2,4-difluorobenzyl)-1′-ethyl-6′-fluoro-4′-oxo-3′,4′-dihydro-1′H-spiro[piperidine-4,2′-quinoline]-1-carboxamide], for which the AC50 in assay [1] is 47 nM; in assay [2] it was greater than 10000 nM.

Take `CN1c2ccc(F)cc2C(=O)CC12CCN(C(=O)NCc1ccc(F)c(N)c1)CC2` [Example 27, N-(3-amino-4-fluorobenzyl)-6′-fluoro-1′-methyl-4′-oxo-3′,4′-dihydro-1′H-spiro[piperidine-4,2′-quinoline]-1-carboxamide]: the half-maximal activity concentration (AC50) is 48 nM in assay [1] and greater than 10000 nM in assay [2].

With `CN1c2ccc(F)cc2C(=O)CC12CCN(C(=O)NCc1ccc(F)c(NCCOP(=O)(O)O)c1)CC2` [Example 28], the concentration at half-maximal activity (AC50) is 52 nM in assay [1] and greater than 10000 nM in assay [2].

As to `CCN1c2ccc(F)cc2C(=O)CC12CCN(C(=O)NCc1ccc(F)c(N)c1)CC2` [Example 29, N-(3-amino-4-fluorobenzyl)-1′-ethyl-6′-fluoro-4′-oxo-3′,4′-dihydro-1′H-spiro[piperidine-4,2′-quinoline]-1-carboxamide], the half-maximal activity concentration (AC50) in assay [1] is 54 nM; in assay [2], greater than 10000 nM.

`NS(=O)(=O)c1cc(CNC(=O)N2CCC3(CC2)CC(=O)c2cc(F)ccc2N3)ccc1F` [Example 30, 6′-fluoro-N-(4-fluoro-3-sulfamoylbenzyl)-4′-oxo-3′,4′-dihydro-1′H-spiro[piperidine-4,2′-quinoline]-1-carboxamide]: the concentration at half-maximal activity (AC50) is 61 nM in assay [1] and greater than 10000 nM in assay [2].

As to `O=C1CC2(CCN(C(=O)NCc3ccccc3)CC2)Nc2ccc(F)cc21` [Example 33, N-benzyl-6′-fluoro-4′-oxo-3′,4′-dihydro-1′H-spiro[piperidine-4,2′-quinoline]-1-carboxamide], the half-maximal activity concentration (AC50) stood at 75 nM in assay [1] and 1190 nM in assay [2].

As for `O=C1CC2(CCN(C(=O)NCc3cccc(-c4cnco4)c3)CC2)Nc2c(F)cc(F)cc21` [Example 35, 6′,8′-difluoro-N-(3-(oxazol-5-yl)benzyl)-4′-oxo-3′,4′-dihydro-1′H-spiro[piperidine-4,2′-quinoline]-1-carboxamide], the concentration at half-maximal activity (AC50) in assay [1] came out at 77 nM; in assay [2], 2720 nM.

`NC(=O)c1coc(CNC(=O)N2CCC3(CC2)CC(=O)c2cc(F)cc(F)c2N3)c1` [Example 38, N-((4-carbamoylfuran-2-yl)methyl)-6′,8′-difluoro-4′-oxo-3′,4′-dihydro-1′H-spiro[piperidine-4,2′-quinoline]-1-carboxamide]: the figures for the concentration at half-maximal activity (AC50) in assay [1] and in assay [2] were 82 nM and greater than 10000 nM, respectively.

With `O=C1CC2(CCN(C(=O)NCc3ccc(O)cc3)CC2)Nc2ccc(F)cc21` [Example 39, 6′-fluoro-N-(4-hydroxybenzyl)-4′-oxo-3′,4′-dihydro-1′H-spiro[piperidine-4,2′-quinoline]-1-carboxamide], the concentration at half-maximal activity (AC50) was 82 nM in assay [1] and greater than 10000 nM in assay [2].

On to `CN1c2ccc(F)cc2C(=O)CC12CCN(C(=O)NCc1ccc(F)c(C(N)=O)c1)CC2` [Example 41, N-(3-carbamoyl-4-fluorobenzyl)-6′-fluoro-1′-methyl-4′-oxo-3′,4′-dihydro-1′H-spiro[piperidine-4,2′-quinoline]-1-carboxamide], for which the AC50 in assay [1] was 93 nM; in assay [2], greater than 10000 nM.

Consider `CN1c2ccc(F)cc2C(=O)CC12CCN(C(=O)NCc1ccc(F)c(N)c1F)CC2` [Example 42, N-(3-amino-2,4-difluorobenzyl)-6′-fluoro-1′-methyl-4′-oxo-3′,4′-dihydro-1′H-spiro[piperidine-4,2′-quinoline]-1-carboxamide], for which the results for the AC50 in assay [1] and in assay [2] were 94 nM and greater than 10000 nM, respectively.

With `O=C1CC2(CCN(C(=O)NCc3ccc(F)cc3O)CC2)Nc2ccc(F)cc21` [Example 43, 6′-fluoro-N-(4-fluoro-2-hydroxybenzyl)-4′-oxo-3′,4′-dihydro-1′H-spiro[piperidine-4,2′-quinoline]-1-carboxamide], the results for the AC50 in assay [1] and in assay [2] were 99 nM and greater than 10000 nM, respectively.

Take `CN1c2ccc(F)cc2C(=O)CC12CCN(C(=O)NCc1ccc(F)c(NC[C@H](O)CO)c1)CC2` [Example 45, (S)—N-(3-((2,3-dihydroxypropyl)amino)-4-fluorobenzyl)-6′-fluoro-1′-methyl-4′-oxo-3′,4′-dihydro-1′H-spiro[piperidine-4,2′-quinoline]-1-carboxamide]: the results for the concentration at half-maximal activity (AC50) in assay [1] and in assay [2] were 100 nM and greater than 10000 nM, respectively.

As to `O=C1CC2(CCN(C(=O)NCc3ccoc3)CC2)Nc2c(F)cc(F)cc21` [Example 46, 6′,8′-difluoro-N-(furan-3-ylmethyl)-4′-oxo-3′,4′-dihydro-1′H-spiro[piperidine-4,2′-quinoline]-1-carboxamide], the results for the AC50 in assay [1] and in assay [2] were 105 nM and 2940 nM, respectively.

For the molecule `O=C1CC2(CCN(C(=O)NCc3cc[nH]n3)CC2)Nc2ccc(F)cc21` [Example 47, N-((1H-pyrazol-3-yl)methyl)-6′-fluoro-4′-oxo-3′,4′-dihydro-1′H-spiro[piperidine-4,2′-quinoline]-1-carboxamide], the results for the half-maximal activity concentration (AC50) in assay [1] and in assay [2] were 106 nM and greater than 10000 nM, respectively.

Regarding `O=C(NCCO)c1cc(CNC(=O)N2CCC3(CC2)CC(=O)c2cc(F)ccc2N3)ccc1F` [Example 48, 6′-fluoro-N-(4-fluoro-3-((2-hydroxyethyl)carbamoyl)benzyl)-4′-oxo-3′,4′-dihydro-1′H-spiro[piperidine-4,2′-quinoline]-1-carboxamide], the AC50 in assay [1] stood at 108 nM; in assay [2], 7960 nM.

Regarding `Nc1cc(F)c(CNC(=O)N2CCC3(CC2)CC(=O)c2cc(F)ccc2N3)cc1F` [Example 49, N-(4-amino-2,5-difluorobenzyl)-6′-fluoro-4′-oxo-3′,4′-dihydro-1′H-spiro[piperidine-4,2′-quinoline]-1-carboxamide], the half-maximal activity concentration (AC50) in assay [1] is 113 nM; in assay [2], greater than 10000 nM.

Turning to `CCN1c2ccc(F)cc2C(=O)CC12CCN(C(=O)NCc1cc(N)c(F)cc1F)CC2` [Example 50, N-(5-amino-2,4-difluorobenzyl)-1′-ethyl-6′-fluoro-4′-oxo-3′,4′-dihydro-1′H-spiro[piperidine-4,2′-quinoline]-1-carboxamide], the AC50 in assay [1] is 122 nM; in assay [2], greater than 10000 nM.

Take `O=C1CC2(CCN(C(=O)NCc3ccc(F)cc3OCC(F)(F)F)CC2)Nc2ccc(F)cc21` [Example 51, 6′-fluoro-N-(4-fluoro-2-(2,2,2-trifluoroethoxy)benzyl)-4′-oxo-3′,4′-dihydro-1′H-spiro[piperidine-4,2′-quinoline]-1-carboxamide]: the results for the AC50 in assay [1] and in assay [2] were 128 nM and 4750 nM, respectively.

With `CCNc1cc(F)ccc1CNC(=O)N1CCC2(CC1)CC(=O)c1cc(F)ccc1N2C` [Example 52, N-(2-(ethylamino)-4-fluorobenzyl)-6′-fluoro-1′-methyl-4′-oxo-3′,4′-dihydro-1′H-spiro[piperidine-4,2′-quinoline]-1-carboxamide], the AC50 in assay [1] is 139 nM; in assay [2], greater than 10000 nM.

With `O=C1CC2(CCN(C(=O)NCc3cccc4c3OCO4)CC2)Nc2c(F)cc(F)cc21` [Example 53, N-(benzo[d][1,3]dioxol-4-ylmethyl)-6′,8′-difluoro-4′-oxo-3′,4′-dihydro-1′H-spiro[piperidine-4,2′-quinoline]-1-carboxamide], the half-maximal activity concentration (AC50) in assay [1] worked out at 141 nM; in assay [2] it was 2020 nM.

Take `O=C1CC2(CCN(C(=O)NCc3ccc(O)cc3)CC2)Nc2c(F)cc(F)cc21` [Example 54, 6′,8′-difluoro-N-(4-hydroxybenzyl)-4′-oxo-3′,4′-dihydro-1′H-spiro[piperidine-4,2′-quinoline]-1-carboxamide]: the AC50 in assay [1] came out at 3 nM; in assay [2] it was 9850 nM.

`CN1c2ccc(F)cc2C(=O)CC12CCN(C(=O)NCc1ccc(F)c(NS(C)(=O)=O)c1)CC2` [Example 55, 6′-fluoro-N-(4-fluoro-3-(methylsulfonamido)benzyl)-1′-methyl-4′-oxo-3′,4′-dihydro-1′H-spiro[piperidine-4,2′-quinoline]-1-carboxamide]: the AC50 was 150 nM in assay [1] and 5170 nM in assay [2].

For the molecule `Nc1ccc(CNC(=O)N2CCC3(CC2)CC(=O)c2cc(F)ccc2N3)cc1F` [Example 56, N-(4-amino-3-fluorobenzyl)-6′-fluoro-4′-oxo-3′,4′-dihydro-1′H-spiro[piperidine-4,2′-quinoline]-1-carboxamide], the AC50 is 166 nM in assay [1] and greater than 10000 nM in assay [2].

The values above are taken from patent US11970497B2, “Tricyclic AKR1C3 dependent KARS inhibitors” (Novartis AG, priority 2019, dated 2024).
